Experimental data: patent US6855715B1, “Serine protease inhibitors” (Eli Lilly and Company, priority 1999, dated 2005)

Assays:
plasma = assay: Partial Thromboplastin Time (Prothrombin) Test Protocol; assay type: biochemical; settings: concentration of the solution added; final concentration in the assay mixture is one third of this value; Example 66 and comparison compounds: average of 3 tests
Description: The ability of a test compound to elongate Partial Thromboplastin Time (Prothrombin Time) may be evaluated in the following test protocols.
Partial Thromboplastin Time (Prothrombin) Test Protocol Venous blood was collected into 3.2% (0.109 m) trisodium citrate vacutainer tubes at 1 volume of anticoagulant to nine volumes of blood. The blood cells were separated by centrifugation at 700 g for ten minutes to yield plasma, which was frozen at […] until required.
To perform the test, 100 μl of plasma was pipetted into in a glass test tube, 1 μl of test compound in DMSO was added, and allowed to warm to 37° over two minutes. 100 μl of warm (37°) Manchester (tissue thromboplasin) reagent (Helena Biosciences, UK) was added, allowed to equilibrate for two minutes. 100 μl of warm (37°) 25 mM calcium chloride solution was added to initiate clotting. The test tube was tilted three times through a 90° angle every five seconds to mix the reagents and the time to clot formation recorded. Data from a series of observations and test compound concentrations are analysed by a SAS statistical analysis program and a CT2 (Concentration required to double clotting time) for each compound is generated.

| Molecule | melting point | Conc. necessary to double the prothrombin time (plasma) [µM] |
| --- | --- | --- |
| COc1ccc(C(=O)N[C@@H](C(=O)N2CCN(CC3CCN(C(C)C)CC3)CC2)c2ccccc2)cc1.Cl | 172 to 180 °C (dec.) | – |
| 1-(3,4 Diaminobenzoyl-D-phenylglycinyl)-4-(4-fluoro-2-methylsulphonylphenyl)piperazine [Example 32] | – | 11 |
| COc1ccc(C(=O)N[C@@H](C(=O)N2CCN(CCC3CCCC3)CC2)c2ccccc2)cc1.Cl.O (hydrate or solvate) | 190 to 192 °C | – |
| CS(=O)(=O)c1cc(F)ccc1N1CCN(C(=O)[C@H](NC(=O)c2ccc3ccnc(N)c3c2)c2ccccc2)CC1.O=C(O)C(F)(F)F.O=C(O)C(F)(F)F [1-aminoisoquinolin-7-oyl-D-phenylglycine-4-(4-fluoro-2-methanesulfonylphenyl)-piperazinamide ditrifluoroactetate salt, reference compound] | – | 45 |
| Nc1cc2ccccc2cc1C(=O)N[C@@H](C(=O)N1CCC(C2CCNCC2)CC1)c1ccccc1 [Example 8, 1-(3-Amino-2-naphthoyl-D-phenylglycinyl)-4,4′-bispiperidine] | – | 26 |
| CS(=O)(=O)c1cc(F)ccc1N1CCN(C(=O)[C@H](NC(=O)c2cc(N)ccc2N)c2ccccc2)CC1 [Example 27, 1-(2,5-Diaminobenzoyl-D-phenylglycinyl)-4-(4-fluoro-2-methylsulphonylphenyl)piperazine] | – | 6.7 |
| CS(=O)(=O)c1cc(F)ccc1N1CCN(C(=O)[C@H](NC(=O)c2cccc(N)c2)c2ccccc2)CC1 [Example 30, 1-(3-Aminobenzoyl-D-phenylglycinyl)-4-(4-fluoro-2-methylsulphonylphenyl)piperazine] | – | 7.8 |
| Cc1ccc(C(=O)N[C@@H](C(=O)N2CCN(c3ccc(F)cc3S(C)(=O)=O)CC2)c2ccccc2)cc1N [Example 38, 1-(3-Amino-4-methylbenzoyl-D-phenylglycinyl)-4-(4-fluoro-2-methylsulphonylphenyl)piperazine] | – | 9.0 |
| COc1ccc(C(=O)N[C@@H](C(=O)N2CCN(c3ccc(F)cc3S(C)(=O)=O)CC2)c2ccccc2)cc1 [Example 39, 1-(4-Methoxybenzoyl-D-phenylglycinyl)-4-(4-fluoro-2-methylsulphonylphenyl)piperazine] | – | 12 |
| COc1ccc(C(=O)N[C@@H](C(=O)N2CCN(c3ccc(F)cc3S(C)(=O)=O)CC2)c2ccccc2)cc1N [Example 40, 1-(3-Amino-4-methoxybenzoyl-D-phenylglycinyl)-4-(4-fluoro-2-methylsulphonylphenyl)piperazine] | – | 12 |
| CN1CCC(C2CCN(C(=O)[C@H](NC(=O)c3cccc(N)c3)c3ccccc3)CC2)CC1 [Example 62, 1-(3-Aminobenzoyl-D-phonylglycinyl)-1′-methyl-4,4′-bispiperidine] | – | 8.6 |
| CN1CCC(C2CCN(C(=O)[C@H](NC(=O)c3ccc(Cl)c(N)c3)c3ccccc3)CC2)CC1 [Example 63, 1-(3-Amino-4-chlorobenzoyl-D-phenylglycinyl)-1′-methyl-4,4′-bispiperidine] | – | 2.1 |
| Cc1ccc(C(=O)N[C@@H](C(=O)N2CCC(C3CCN(C)CC3)CC2)c2ccccc2)cc1N [Example 64, 1-(3-Amino-4-methylbenzoyl-D-phenylglycinyl)-1′-methyl-4,4′-bispiperidine] | – | 4.4 |
| CN1CCC(C2CCN(C(=O)[C@H](NC(=O)c3cc4ccccc4cc3N)c3ccccc3)CC2)CC1 [Example 65, 1-(3-Aminonaphth-2-oyl-D-phenylglycinyl)-1′-methyl-4,4′-bispiperidine] | – | 6.1 |
| CN1CCC(C2CCN(C(=O)[C@H](NC(=O)c3ccc4cc[nH]c4c3)c3ccccc3)CC2)CC1 [Example 66, 1-(Indol-6-carbonyl-D-phenylglycinyl)-1′-methyl-4,4′-bispiperidine] | – | 2.1 |
| CN1CCC(C2CCN(C(=O)[C@H](NC(=O)c3ccc(Br)c(N)c3)c3ccccc3)CC2)CC1 [Example 68, 1-(3-Amino-4-bromobenzoyl-D-phenylglycinyl)-1′-methyl-4,4′-bispiperidine] | – | 3.6 |
| COc1ccc(C(=O)N[C@@H](C(=O)N2CCC(C3CCN(C)CC3)CC2)c2ccccc2)cc1N [Example 69, 1-(3-Amino-4-methoxybenzoyl-D-phenylglycinyl)-1′-methyl-4,4′-bispiperidine] | – | 5.8 |
| CNc1ccc(C(=O)N[C@@H](C(=O)N2CCC(C3CCN(C)CC3)CC2)c2ccccc2)cc1 [Example 70, 1-(4-(Methylamino)benzoyl-D-phenylglycinyl)-1′-methyl-4,4′-bispiperidine] | – | 4.0 |
| COc1ccc(C(=O)N[C@@H](CNC(=O)c2ccc(C)cc2)c2ccccc2)cc1 [Example 254, (R)-N-[2-(4-Methoxybenzoylamino)-2-phenylethyl]-4-methylbenzamide] | 230 to 238 °C | – |
| CCc1ccc(C(=O)NC[C@H](NC(=O)c2ccc(OC)cc2)c2ccccc2)cc1 [Example 255, (R)-N-[2-(4-Methoxybenzoylamino)-2-phenylethyl]-4-ethylbenzamide] | 222 to 229 °C | – |
| COc1ccc(C(=O)N[C@@H](CNC(=O)c2ccc(C(C)C)cc2)c2ccccc2)cc1 [Example 256, (R)-N-[2-(4-Methoxybenzoylamino)-2-phenylethyl]-4-isopropylbenzamide] | 239 to 244 °C | – |
| COc1ccc(C(=O)N[C@@H](CNC(=O)c2ccc(C(C)(C)C)cc2)c2ccccc2)cc1 [Example 257, (R)-N-[2-(4-Methoxybenzoylamino)-2-phenylethyl]-4-tert-butylbenzamide] | 171 to 175 °C | – |
| COc1ccc(C(=O)N[C@@H](CNC(=O)C2CCN(C3CCCC3)CC2)c2ccccc2)cc1 [Example 259, (R)-N-[2-(4-Methoxybenzoylamino)-2-phenylethyl]-1-cyclopentylpiperidine-4-carboxamide] | 253 to 257 °C | – |
| COc1ccc(C(=O)N[C@@H](CNC(=O)C2CCN(C3CCCCC3)CC2)c2ccccc2)cc1 [Example 260, (R)-N-[2-(4-Methoxybenzoylamino)-2-phenylethyl]-1-cyclohexylpiperidine-4-carboxamide] | 239 to 243 °C | – |
| CCN1CCC(C(=O)NC[C@H](NC(=O)c2ccc(OC)cc2)c2ccccc2)CC1 [Example 261, (R)-N-[2-(4-Methoxybenzoylamino)-2-phenylethyl]-1-ethylpiperidine-4-carboxamide] | 245 to 251 °C | – |
| COc1ccc(C(=O)N[C@@H](CNC(=O)C2CCN(C3CCN(C)CC3)CC2)c2ccccc2)cc1 [Example 262, (R)-N-[2-(4-Methoxybenzoylamino)-2-phenylethyl]-1-(1-methylpiperidin-4-yl)piperidine-4-carboxamide] | 252 to 259 °C | – |
